Measurements taken from patent US11712434B2, “Compound having anti-cancer effect, and preparation method therefor and use thereof” (3D MEDICINES (BEIJING) CO., LTD., priority 2016, dated 2023).

Assays:
Experiment in all cases: Cell proliferation assay (Alamar Blue)
Format in all cases: cell-based
22RV1 = 22RV1 tumor cell line, 6 days culture
Method in brief: (§1)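 Compounds were added 4 h after seeding and left on the cells for 6 days. Nine concentrations spanning 3.16-fold dilutions from a top of 100 or 30 μM were run in duplicate. Fluorescence after AlamarBlue gave inhibition rates, fitted for IC50.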

LNCAP-clone-FGC = LNCAP-clone-FGC tumor cell line, 6 days culture
Method in brief: as §1

JHH6 = JHH6 liver cancer cell line, 6 days culture
Method in brief: as §1

SNU182 = SNU182 liver cancer cell line, 6 days culture
Method in brief: as §1

JHH4 = JHH4 liver cancer cell line, 6 days culture
Method in brief: as §1

MG63 = MG63 tumor cell line, 6 days culture
Method in brief: as §1

SK-HEP-1 = SK-HEP-1 liver cancer cell line, 6 days culture
Method in brief: as §1

SNU387 = SNU387 liver cancer cell line, 6 days culture
Method in brief: as §1

NCI-H1703 = NCI-H1703 (lung cancer cells), 6 days culture
Method in brief: as §1

Li-7 = Li-7 liver cancer cell line, 6 days culture
Method in brief: as §1

HT1080 = HT1080 tumor cell line, 6 days culture
Method in brief: as §1

HUH6 = HUH6 liver cancer cell line, 6 days culture
Method in brief: as §1

JHH1 = JHH1 liver cancer cell line, 6 days culture
Method in brief: as §1

SNU761 = SNU761 liver cancer cell line, 6 days culture
Method in brief: as §1

JHH2 = JHH2 liver cancer cell line, 6 days culture
Method in brief: as §1

HLF = HLF liver cancer cell line, 6 days culture
Method in brief: as §1

SNU398 = SNU398 liver cancer cell line, 6 days culture
Method in brief: as §1

SNU449 = SNU449 liver cancer cell line, 6 days culture
Method in brief: as §1

SNU423 = SNU423 liver cancer cell line, 6 days culture
Method in brief: as §1

TE-6 = TE-6 tumor cell line, 6 days culture
Method in brief: as §1

NCI-H716 = NCI-H716 tumor cell line, 6 days culture
Method in brief: as §1

MDA-MB-435S = MDA-MB-435S tumor cell line, 6 days culture
Method in brief: as §1

JHH5 = JHH5 liver cancer cell line, 6 days culture
Method in brief: as §1

KM12 = KM12 tumor cell line, 6 days culture
Method in brief: as §1

SNU475 = SNU475 liver cancer cell line, 6 days culture
Method in brief: as §1

SNU354 = SNU354 liver cancer cell line, 6 days culture
Method in brief: as §1

TE-15 = TE-15 tumor cell line, 6 days culture
Method in brief: as §1

For `Cc1ccc(F)c(NC(=O)Nc2ccc(-c3cccc4[nH]nc(NC(=O)CCCCCNC(=O)C[C@H](N)C(=O)N[C@@H](CCC(=O)O)C(=O)O)c34)cc2)c1` [Compound 4], the IC50 (22RV1) was > 100 µM, the IC50 (LNCAP-clone-FGC) was > 100 µM and the IC50 (JHH6) was > 100 µM. For the same compound, the IC50 (SNU182) was > 100 µM, the IC50 (JHH4) was > 100 µM and the IC50 (MG63) was > 100 µM. The IC50 (SK-HEP-1) was > 100 µM, the IC50 (SNU387) was > 100 µM and the IC50 (NCI-H1703) was 1.24 µM. For the same compound, the IC50 (Li-7) was > 100 µM, the IC50 (HT1080) was > 100 µM and the IC50 (HUH6) was > 100 µM. For the same compound, the IC50 (JHH1) was > 100 µM, the IC50 (SNU761) was > 100 µM and the IC50 (JHH2) was > 100 µM. The IC50 (HLF) was > 100 µM, the IC50 (SNU398) was > 100 µM and the IC50 (SNU449) was > 100 µM. The IC50 (SNU423) was > 100 µM, the IC50 (TE-6) was > 100 µM and the IC50 (NCI-H716) was 82.7 µM. The IC50 (MDA-MB-435S) was > 100 µM, the IC50 (JHH5) was > 100 µM and the IC50 (KM12) was > 100 µM. The IC50 (SNU475) was > 100 µM, the IC50 (SNU354) was > 100 µM and the IC50 (TE-15) was > 100 µM.
For `Cc1ccc(F)c(NC(=O)Nc2ccc(-c3cccc4[nH]nc(NC(=O)CCCCCCCCCCCNC(=O)C[C@H](N)C(=O)N[C@@H](CCC(=O)N[C@@H](CCC(=O)N[C@@H](CCC(=O)N[C@@H](CCC(=O)N[C@@H](CCC(=O)N[C@@H](CCC(=O)N[C@@H](CCC(=O)N[C@@H](CCC(=O)N[C@@H](CCC(=O)O)C(=O)O)C(=O)O)C(=O)O)C(=O)O)C(=O)O)C(=O)O)C(=O)O)C(=O)O)C(=O)O)c34)cc2)c1` [Compound 9], the IC50 (22RV1) was > 100 µM, the IC50 (LNCAP-clone-FGC) was > 100 µM and the IC50 (JHH6) was > 100 µM. The IC50 (SNU182) was > 100 µM, the IC50 (JHH4) was > 100 µM and the IC50 (MG63) was > 100 µM. For the same compound, the IC50 (SK-HEP-1) was > 100 µM, the IC50 (SNU387) was > 100 µM and the IC50 (NCI-H1703) was 0.35 µM. For the same compound, the IC50 (Li-7) was > 100 µM, the IC50 (HT1080) was > 100 µM and the IC50 (HUH6) was > 100 µM. For the same compound, the IC50 (JHH1) was > 100 µM, the IC50 (SNU761) was > 100 µM and the IC50 (JHH2) was > 100 µM. The IC50 (HLF) was > 100 µM, the IC50 (SNU398) was > 100 µM and the IC50 (SNU449) was > 100 µM. The IC50 (SNU423) was > 100 µM, the IC50 (TE-6) was > 100 µM and the IC50 (NCI-H716) was 77.2 µM. For the same compound, the IC50 (MDA-MB-435S) was > 100 µM, the IC50 (JHH5) was > 100 µM and the IC50 (KM12) was > 100 µM. For the same compound, the IC50 (SNU475) was > 100 µM, the IC50 (SNU354) was > 100 µM and the IC50 (TE-15) was > 100 µM.
`Cc1ccc(F)c(NC(=O)Nc2ccc(-c3cccc4[nH]nc(NC(=O)CCCCCCCCCCCNC(=O)C[C@H](N)C(=O)N[C@@H](CCC(=O)N[C@@H](CCC(=O)N[C@@H](CCC(=O)N[C@@H](CCC(=O)O)C(=O)O)C(=O)O)C(=O)O)C(=O)O)c34)cc2)c1` [Compound 8] was tested, and the IC50 (22RV1; Homo sapiens, 144 h) was > 100 µM, the IC50 (LNCAP-clone-FGC; Homo sapiens, 144 h) was > 100 µM and the IC50 (JHH6; 144 h) was > 100 µM. The IC50 (SNU182; Homo sapiens, SNU-182, 144 h) was > 100 µM, the IC50 (JHH4; JHH-4, 144 h) was > 100 µM and the IC50 (MG63; Homo sapiens, MG-63, 144 h) was > 100 µM. For the same compound, the IC50 (SK-HEP-1; Homo sapiens, SK-HEP1, 144 h) was > 100 µM, the IC50 (SNU387; Homo sapiens, SNU-387, 144 h) was > 100 µM and the IC50 (NCI-H1703; Homo sapiens, 144 h) was 0.19 µM. The IC50 (Li-7; 144 h) was > 100 µM, the IC50 (HT1080; Homo sapiens, HT-1080, 144 h) was > 100 µM and the IC50 (HUH6; Homo sapiens, HuH-6, 144 h) was > 100 µM. The IC50 (JHH1; 144 h) was > 100 µM, the IC50 (SNU761; 144 h) was > 100 µM and the IC50 (JHH2; JHH-2, 144 h) was > 100 µM. For the same compound, the IC50 (HLF; 144 h) was > 100 µM, the IC50 (SNU398; Homo sapiens, SNU-398, 144 h) was > 100 µM and the IC50 (SNU449; Homo sapiens, SNU-449, 144 h) was > 100 µM. The IC50 (SNU423; Homo sapiens, SNU-423, 144 h) was > 100 µM, the IC50 (TE-6; Homo sapiens, 144 h) was > 100 µM and the IC50 (NCI-H716; Homo sapiens, 144 h) was 44.9 µM. For the same compound, the IC50 (MDA-MB-435S; Homo sapiens, 144 h) was > 100 µM, the IC50 (JHH5; 144 h) was > 100 µM and the IC50 (KM12; Homo sapiens, 144 h) was > 100 µM. For the same compound, the IC50 (SNU475; Homo sapiens, SNU-475, 144 h) was > 100 µM, the IC50 (SNU354; Homo sapiens, SNU-354, 144 h) was > 100 µM and the IC50 (TE-15; Homo sapiens, 144 h) was > 100 µM.
